Tests used:
Assay type in all cases: in vivo, Wistar strain albino rats
[1] = Prophylactic study: hematological parameters; details: HFD+normal diet; for Lymphocyte / Neutrophils: in % (unit assumed)
Procedure: (§1) Wistar strain albino rats of body weight ranging from 190-225 g were selected for the present study. The temperature and humidity were kept at optimum (22+2° C.; 40-70% and animals were exposed to natural chronological day night cycles. The experiments were carried out in conformity with the Institutional Animal Ethics Committee.
(§2) The 6 groups were as follows: • 1. Normal Control • 2.
(§3) 1.5-2 ml blood sample was taken from retino-orbital chamber in vials for biochemical estimations at every 15 days. Investigations performed included detailed Total Cholesterol—TC (mg/dl), Triglyceride—TG (mg/dl), High Density Lipoprotein—HDL-C (mg/dl), Low Density Lipoprotein—LDL-C (mg/dl), Very Low-Density Lipoprotein—VLDL (mg/dl), WBC (10^3/u1), RBC (10^6/u1), Hb (g/dl), PCV (%), Reticulocyte (%), Platelet count 10^5/mm^3, Clotting time (Sec), Neutrophils, Lymphocyte, Monocyte and Eosinophil. The estimations were done with Ecoline kits from Erba Mannheim, ERBA diagnostics Mannheml, Germany using Semi Autoanalyzer RX50 of MicroLabs Instruments and COUNCELL21 of Tulip Diagnostics Pvt. Ltd. Lipid peroxidation (Plasma & Liver), HMG Co-Reductase, Creatine phosphokinase (CPK), Lactate dehydrogenase (LDH), SGOT and SGPT were estimated at the end of both the studies using the kits.

[2] = Therapeutic study (60 days treatment after 90 days HFD): body weight; details: in g
Procedure: as §1, §2

[3] = molecular target: T1, HMG CoA Reductase (Rattus norvegicus, UniProt P51639); assay: Therapeutic study: HMG CoA reductase activity in liver homogenate; details: after necropsy
T1 construct: The tissue homogenate was prepared by homogenizing 1 gm of tissue (liver) with 10 ml of saline arsenate solution; from tissue; host or cells: rat liver homogenate
T1 sequence (P51639 1-887): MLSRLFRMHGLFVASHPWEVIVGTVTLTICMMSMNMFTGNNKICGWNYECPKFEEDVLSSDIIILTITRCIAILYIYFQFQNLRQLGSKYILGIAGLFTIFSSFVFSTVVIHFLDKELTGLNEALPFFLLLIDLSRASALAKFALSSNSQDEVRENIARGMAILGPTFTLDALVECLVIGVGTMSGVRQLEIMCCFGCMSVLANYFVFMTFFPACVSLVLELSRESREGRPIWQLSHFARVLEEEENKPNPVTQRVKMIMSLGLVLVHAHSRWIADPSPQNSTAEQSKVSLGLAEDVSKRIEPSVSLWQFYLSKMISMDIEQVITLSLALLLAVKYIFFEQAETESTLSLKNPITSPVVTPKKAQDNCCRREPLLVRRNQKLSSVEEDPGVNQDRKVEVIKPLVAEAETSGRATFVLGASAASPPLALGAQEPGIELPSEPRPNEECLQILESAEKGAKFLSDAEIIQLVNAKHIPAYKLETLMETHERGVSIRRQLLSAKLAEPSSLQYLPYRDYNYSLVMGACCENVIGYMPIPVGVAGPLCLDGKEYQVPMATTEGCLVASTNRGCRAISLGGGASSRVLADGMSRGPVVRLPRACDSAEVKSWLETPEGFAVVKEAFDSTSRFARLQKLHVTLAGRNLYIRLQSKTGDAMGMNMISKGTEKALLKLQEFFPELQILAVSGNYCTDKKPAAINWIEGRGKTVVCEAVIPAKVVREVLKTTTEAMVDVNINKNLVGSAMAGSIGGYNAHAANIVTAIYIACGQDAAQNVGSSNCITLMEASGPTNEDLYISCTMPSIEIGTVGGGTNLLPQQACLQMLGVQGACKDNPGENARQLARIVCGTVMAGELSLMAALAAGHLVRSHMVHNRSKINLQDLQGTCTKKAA
Procedure: as §3
The tissue homogenate was prepared by homogenizing 1 gm of tissue (liver) with 10 ml of saline arsenate solution. Further equal volumes of the fresh 10% tissue homogenate and diluted perchloric acid were mixed and allowed to stand for 5 minute and centrifuge (2000 rpm, 10 minutes). […] The readings were taken after 10 minutes at 540 nm vs. a similarly treated saline/arsenate blank.

Structure (SMILES): CC(C)c1c(C(=O)Nc2ccccc2)c(-c2ccccc2)c(-c2ccc(F)cc2)n1CC[C@@H](O)C[C@@H](O)CC(=O)O [Statin, Atorvastatin]
- Clotting time ([1]; day 0): 109.0 ± 1.10 s
- Eosinophil ([1]; day 0): 1.1%
- Hb ([1]; day 0): 11.95 ± 1.10 g/dL
- Monocyte ([1]; day 0): 1.4%
- PCV ([1]; day 0): 42.50 ± 1.80%
- RBC ([1]; day 0): 7.20 ± 0.20 10^6/μl
- Reticulocyte ([1]; day 0): 1.15 ± 0.05%
- WBC ([1]; day 0): 8.90 ± 0.55 10^3/μl
- Lymphocyte ([1]; day 0): 71.5
- Neutrophils ([1]; day 0): 26
- Clotting time ([1]; day 15): 107.45 ± 0.77 s
- Eosinophil ([1]; day 15): 1.3%
- Monocyte ([1]; day 15): 1.4%
- PCV ([1]; day 15): 35.85 ± 1.11%
- Platelet count ([1]; day 15): 905 ± 21.2 10³/µL
- RBC ([1]; day 15): 7.20 ± 0.81 10^6/μl
- Reticulocyte ([1]; day 15): 1.10 ± 0.11%
- WBC ([1]; day 15): 9.79 ± 0.57 10^3/μl
- Lymphocyte ([1]; day 15): 72.7
- Neutrophils ([1]; day 15): 24.6
- Clotting time ([1]; day 30): 110.0 ± 1.0 s
- Eosinophil ([1]; day 30): 1.15%
- Monocyte ([1]; day 30): 1.6%
- Platelet count ([1]; day 30): 1060 ± 23.3 10³/µL
- RBC ([1]; day 30): 7.20 ± 0.20 10^6/μl
- Reticulocyte ([1]; day 30): 1.08 ± 0.10%
- WBC ([1]; day 30): 9.03 ± 0.3 10^3/μl
- Lymphocyte ([1]; day 30): 71.25
- Neutrophils ([1]; day 30): 26
- Clotting time ([1]; day 45): 114.0 ± 1.00 s
- Eosinophil ([1]; day 45): 1.15%
- Hb ([1]; day 45): 12.00 ± 1.20 g/dL
- Monocyte ([1]; day 45): 1.4%
- PCV ([1]; day 45): 42.10 ± 1.30%
- RBC ([1]; day 45): 7.05 ± 0.21 10^6/μl
- Reticulocyte ([1]; day 45): 1.25 ± 0.06%
- WBC ([1]; day 45): 9.00 ± 0.50 10^3/μl
- Lymphocyte ([1]; day 45): 71.45
- Neutrophils ([1]; day 45): 26
- Clotting time ([1]; day 60): 112.0 ± 1.05 s
- Hb ([1]; day 60): 12.20 ± 1.12 g/dL
- PCV ([1]; day 60): 43.10 ± 1.30%
- RBC ([1]; day 60): 7.06 ± 0.31 10^6/μl
- Reticulocyte ([1]; day 60): 1.35 ± 0.06%
- WBC ([1]; day 60): 8.00 ± 0.60 10^3/μl
- Lymphocyte ([1]; day 60): 71.45
- Neutrophils ([1]; day 60): 26
- Clotting time ([1]; day 75): 110.81 ± 5.86 s
- Eosinophil ([1]; day 75): 1.22%
- Hb ([1]; day 75): 12.82 ± 0.25 g/dL
- Platelet count ([1]; day 75): 1070 ± 22.9 10³/µL
- RBC ([1]; day 75): 7.36 ± 0.21 10^6/μl
- Reticulocyte ([1]; day 75): 1.70 ± 0.05%
- WBC ([1]; day 75): 8.71 ± 0.23 10^3/μl
- Lymphocyte ([1]; day 75): 71.12
- Neutrophils ([1]; day 75): 26.28
- Clotting time ([1]; day 90): 111.00 ± 5.57 s
- Eosinophil ([1]; day 90): 1.35%
- Hb ([1]; day 90): 12.78 ± 0.28 g/dL
- Platelet count ([1]; day 90): 1070 ± 22.9 10³/µL
- RBC ([1]; day 90): 7.37 ± 0.20 10^6/μl
- Reticulocyte ([1]; day 90): 1.73 ± 0.02%
- WBC ([1]; day 90): 8.76 ± 0.19 10^3/μl
- Lymphocyte ([1]; day 90): 70.82
- Neutrophils ([1]; day 90): 26.37
- Average Body Weight ([2]; HFD continued, day 0): 275.33 ± 7.09
- Average Body Weight ([2]; HFD continued, day 15): 270.67 ± 7.37
- Average Body Weight ([2]; HFD continued, day 30): 268.33 ± 2.52
- Average Body Weight ([2]; HFD continued, day 45): 265.67 ± 6.51
- Average Body Weight ([2]; HFD continued, day 60): 262.33 ± 7.15
- Average Body Weight ([2]; HFD discontinued, day 0): 270.33 ± 8.74
- Average Body Weight ([2]; HFD discontinued, day 30): 264.33 ± 3.06
- Average Body Weight ([2]; HFD discontinued, day 45): 263.00 ± 5.57
- Average Body Weight ([2]; HFD discontinued, day 60): 259.83 ± 6.27
- HMG Co Reductase ([3]; HFD Continued): 224.83 ± 18.48 U/mg
- HMG Co Reductase ([3]; HFD Discontinued): 170.03 ± 2.71 U/mg
